Experiment [1] deals with T1, M1 muscarinic receptor (Homo sapiens, UniProt P11229).
T1 construct: expressed in transfected cells; host or cells: CHO cells (M1-CHO, under zeocin and G418 selection)
T1 sequence (P11229 1-460): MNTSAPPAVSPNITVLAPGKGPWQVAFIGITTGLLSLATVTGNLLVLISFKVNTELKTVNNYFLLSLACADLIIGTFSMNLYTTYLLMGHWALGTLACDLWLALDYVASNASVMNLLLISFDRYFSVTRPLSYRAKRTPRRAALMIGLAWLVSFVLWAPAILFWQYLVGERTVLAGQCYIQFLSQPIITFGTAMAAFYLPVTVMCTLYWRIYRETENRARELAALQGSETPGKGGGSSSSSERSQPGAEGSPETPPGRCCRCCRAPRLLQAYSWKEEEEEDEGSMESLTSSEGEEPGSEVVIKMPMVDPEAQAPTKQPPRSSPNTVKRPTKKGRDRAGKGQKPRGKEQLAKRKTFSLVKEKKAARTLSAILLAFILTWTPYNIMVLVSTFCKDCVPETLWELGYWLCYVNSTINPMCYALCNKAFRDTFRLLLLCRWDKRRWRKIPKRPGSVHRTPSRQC
Nature of the experiment: Functional mobilization of intracellular calcium (FLIPR, Fluo-3), M1-CHO cells. The format is cell-based. As to conditions: for Emax: read-out: M1 Efficacy. In outline:
(§1)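 Fluo-3 read-out, ex 488/em 540 nm, 60 sec on FLIPR 3. For agonist mode, compound added directly; for inhibition, 15 min compound pre-incubation before carbachol at EC80 (added as a 3× solution), or co-application. Buffer pH 7.4 with 1 mM probenecid; DMSO 0.5%.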

Experiment [2] has as its target T2, M4 muscarinic receptor (Homo sapiens, UniProt P08173).
T2 construct: expressed in transfected cells; host or cells: CHO cells (M4-CHO, under puromycin, zeocin and blasticidin selection)
T2 sequence (P08173 1-479): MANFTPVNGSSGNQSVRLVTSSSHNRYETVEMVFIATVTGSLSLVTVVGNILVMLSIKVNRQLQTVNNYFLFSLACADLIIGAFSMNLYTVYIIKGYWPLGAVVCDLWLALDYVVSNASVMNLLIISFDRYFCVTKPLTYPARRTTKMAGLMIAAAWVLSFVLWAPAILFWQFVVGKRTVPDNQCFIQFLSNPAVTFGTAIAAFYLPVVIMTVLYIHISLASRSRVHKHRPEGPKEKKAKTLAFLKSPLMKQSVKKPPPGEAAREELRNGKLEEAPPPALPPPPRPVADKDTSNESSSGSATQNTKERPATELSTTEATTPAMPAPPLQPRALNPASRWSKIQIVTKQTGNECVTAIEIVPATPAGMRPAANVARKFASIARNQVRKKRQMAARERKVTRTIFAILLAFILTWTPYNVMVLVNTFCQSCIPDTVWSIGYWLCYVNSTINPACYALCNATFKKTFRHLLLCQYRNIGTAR
Nature of the experiment: Functional mobilization of intracellular calcium (FLIPR, Fluo-3), M4-CHO cells. The settings on record: for Emax: read-out: M4 Efficacy. The format is cell-based. Put shortly:
as §1
A general note: A change in cytosolic calcium serves as a functional read-out for many receptors and channels.

Where [3] appears, read: compound nos. 1-454, 100% efficacy is the maximum response obtained with the Carbachol control.
The mark [4] stands for this setting: compound nos. 1-454, M1-CHO cells, calcium mobilization.
The mark [5] stands for this setting: compound nos. 1-454, M4-CHO cells, calcium mobilization.
Where [6] appears, read: compound nos. 455-509, 100% efficacy is the maximum response obtained with the Carbachol control.

Structures are written as SMILES. Like-named read-outs stand apart in the source and are kept apart here.

With `CC(C)OC(=O)N1C2CCC1CC(N1CCC3(CC1)CN(C(=O)OC1CCC1)c1ccc(F)cc13)C2` (stereo not shown) [compound 166], the values for the Emax in experiment [1] (setting [3]) and in experiment [2] (setting [3]) were over 85% and over 70%, respectively. Also, the “M1 Activity” value in experiment [1] (setting [4]) is “+++ (activity was measured to be less than or equal to 0.7 μM)”. In experiment [2] (setting [5]), the “M4 Activity” value is listed as “+ (activity was measured to be greater than or equal to 4.0 μM)”.
The corresponding values for `CCOC(=O)N1CCC(N2CCC3(CC2)CN(C(=O)c2ccc(C)cc2)c2ccc(F)cc23)CC1` [compound 330] are under 65%, under 55%, “+ (activity was measured to be greater than or equal to 3.0 μM)” and “+ (activity was measured to be greater than or equal to 4.0 μM)”.
On to `CCCOC(=O)N1CCC(N2CCC3(CC2)CN(C(C)=O)c2ccc(C)cc23)CC1` [compound 252], for which the Emax in experiment [1] (setting [3]) is under 65%; in experiment [2] (setting [3]), 55 to 70%. Further, the “M1 Activity” value in experiment [1] (setting [4]) is “+ (activity was measured to be greater than or equal to 3.0 μM)”. The “M4 Activity” value in experiment [2] (setting [5]) is “+ (activity was measured to be greater than or equal to 4.0 μM)”.
Consider `Cc1ncc(N2CCC(N3CCC4(CC3)CN(C(=O)N(C)C)c3ccccc34)CC2)nc1C` [compound 487], for which the Emax in experiment [1] (setting [6]) was over 100%; in experiment [2] (setting [6]), 25 to 100%. The “M1 Activity” value in experiment [1] (compounds 455-509) was “+++ (activity was measured to be less than or equal to 2.0 μM)”. In addition, the “M4 Activity” value in experiment [2] (compounds 455-509) was “++ (activity was measured to be between 2.0 μM and 5.0 μM)”.
On to `c1ccc2c(c1)NCC21CCN(CC2CCCCC2)CC1` [compound 342], for which the Emax in experiment [1] (setting [3]) was in the range of 65 to 85%; in experiment [2] (setting [3]), 55 to 70%. In experiment [1] (setting [4]), the “M1 Activity” value is “+++ (activity was measured to be less than or equal to 0.7 μM)”. Further, in experiment [2] (setting [5]), the “M4 Activity” value was “++ (activity was measured to be between 0.1 μM and 4.0 μM)”.
`CCOC(=O)N1CCC(N2CCC3(CC2)CN(C(C)=O)c2ccc(-c4ccc(C(F)(F)F)cc4)cc23)CC1` [compound 295]: the Emax is 65 to 85% in experiment [1] (setting [3]) and 55 to 70% in experiment [2] (setting [3]). Besides, the “M1 Activity” value in experiment [1] (setting [4]) is on record as “+++ (activity was measured to be less than or equal to 0.7 μM)”. Further, in experiment [2] (setting [5]), the “M4 Activity” value was “+++ (activity was measured to be less than or equal to 0.1 μM)”.
Regarding `Fc1ccc2c(c1)C1(CCN([C@H]3C[C@@H]4CC[C@@H]3C4)CC1)CO2` [compound 204], the Emax in experiment [1] (setting [3]) is 65 to 85%; in experiment [2] (setting [3]), under 55%. Further, the “M1 Activity” value in experiment [1] (setting [4]) was “+++ (activity was measured to be less than or equal to 0.7 μM)”. In addition, the “M4 Activity” value in experiment [2] (setting [5]) is reported as “+ (activity was measured to be greater than or equal to 4.0 μM)”.
For `CCOC(=O)N1CCC(CN2CCC3(CC2)CN(C(C)=O)c2ccc(Cl)cc23)CC1` [compound 256], the Emax is under 65% in experiment [1] (setting [3]) and under 55% in experiment [2] (setting [3]). In experiment [1] (setting [4]), the “M1 Activity” value was “++ (activity was measured to be between 0.7 μM and 3.0 μM)”. Further, the “M4 Activity” value in experiment [2] (setting [5]) is “++ (activity was measured to be between 0.1 μM and 4.0 μM)”.
Take `CCOC(=O)N1C2CCC1CC(N1CCC3(CC1)CN(C(=O)Oc1ccc(F)cc1)c1ccc(F)cc13)C2` (stereo not shown) [compound 298]: in experiment [1] (setting [4]), the “M1 Activity” value is listed as “+ (activity was measured to be greater than or equal to 3.0 μM)”. The Emax was under 65% in experiment [1] and 55 to 70% in experiment [2]. Moreover, the “M4 Activity” value in experiment [2] (setting [5]) is “+ (activity was measured to be greater than or equal to 4.0 μM)”.
For the compound `CCOC(=O)N1CCC(N2CCC3(CC2)CN(C(C)=O)c2ccc(-c4ccc(C)cc4)cc23)CC1` [compound 58, ethyl 4-(1-acetyl-5-p-tolylspiro[indoline-3,4′-piperidine]-1′-yl)piperidine-1-carboxylate], the Emax in experiment [1] (setting [3]) was 65 to 85%; in experiment [2] (setting [3]), 55 to 70%. For the same compound, the “M1 Activity” value in experiment [1] (setting [4]) was “+++ (activity was measured to be less than or equal to 0.7 μM)”. The “M4 Activity” value in experiment [2] (setting [5]) was “++ (activity was measured to be between 0.1 μM and 4.0 μM)”.
Consider `COCCOC(=O)N1CC2(CCN(C3CC4CCC(C3)N4C(=O)OCCOC)CC2)c2cc(F)ccc21` (stereo not shown) [compound 117], for which the results for the Emax in experiment [1] (setting [3]) and in experiment [2] (setting [3]) were 65 to 85% and under 55%, respectively. In experiment [1] (setting [4]), the “M1 Activity” value is recorded as “+++ (activity was measured to be less than or equal to 0.7 μM)”. Further, in experiment [2] (setting [5]), the “M4 Activity” value was “++ (activity was measured to be between 0.1 μM and 4.0 μM)”.
Take `CCCOC(=O)N1C2CCC1CC(N1CCC3(CC1)CN(C(=O)C1CCC1)c1ccc(F)cc13)C2` (stereo not shown) [compound 302]: the Emax is under 65% in experiment [1] (setting [3]) and under 55% in experiment [2] (setting [3]). Further, the “M1 Activity” value in experiment [1] (setting [4]) is recorded as “+ (activity was measured to be greater than or equal to 3.0 μM)”. Also, the “M4 Activity” value in experiment [2] (setting [5]) was “+ (activity was measured to be greater than or equal to 4.0 μM)”.
The corresponding values for `CCOC(=O)N1CCC(N2CCC3(CC2)CN(C(=O)c2cccc(OC)c2)c2ccc(F)cc23)CC1` [compound 45] are over 85%, 55 to 70%, “+++ (activity was measured to be less than or equal to 0.7 μM)” and “+++ (activity was measured to be less than or equal to 0.1 μM)”.
As to `CCOC(=O)N1C2CCC1CC(CN1CCC3(CC1)CNc1ccc(F)cc13)C2` (stereo not shown) [compound 368], the Emax in experiment [1] (setting [3]) was under 65%; in experiment [2] (setting [3]) it was under 55%. Besides, the “M1 Activity” value in experiment [1] (setting [4]) is recorded as “+++ (activity was measured to be less than or equal to 0.7 μM)”. Further, the “M4 Activity” value in experiment [2] (setting [5]) is “++ (activity was measured to be between 0.1 μM and 4.0 μM)”.
As to `C=Cc1ccc2c(c1)C1(CCN(C3CCN(C(=O)OCC)CC3)CC1)CN2C(C)=O` [compound 11], the Emax in experiment [1] (setting [3]) was under 65%; in experiment [2] (setting [3]), under 55%. In addition, the “M1 Activity” value in experiment [1] (setting [4]) is “+ (activity was measured to be greater than or equal to 3.0 μM)”. For the same compound, the “M4 Activity” value in experiment [2] (setting [5]) was “+ (activity was measured to be greater than or equal to 4.0 μM)”.
Turning to `CCOC(=O)N1CCC(N2CCC3(CC2)CN(C(=O)c2ccccc2F)c2ccc(F)cc23)CC1` [compound 267], the results for the Emax in experiment [1] (setting [3]) and in experiment [2] (setting [3]) were under 65% and under 55%, respectively. In experiment [1] (setting [4]), the “M1 Activity” value was “+ (activity was measured to be greater than or equal to 3.0 μM)”. In experiment [2] (setting [5]), the “M4 Activity” value is “+ (activity was measured to be greater than or equal to 4.0 μM)”.
The corresponding values for `COCCOC(=O)N1C2CCC1CC(N1CCC3(CC1)CN(C(=O)OC)c1ccc(F)cc13)C2` (stereo not shown) [compound 33] are over 85%, over 70%, “+++ (activity was measured to be less than or equal to 0.7 μM)” and “+++ (activity was measured to be less than or equal to 0.1 μM)”.
The corresponding values for `C1=C[C@H]2C[C@H]1C[C@H]2CN1CCC2(CCc3ccccc32)CC1` [compound 313] are under 65%, under 55%, “+ (activity was measured to be greater than or equal to 3.0 μM)” and “+ (activity was measured to be greater than or equal to 4.0 μM)”.
The corresponding values for `C#CCOC(=O)N1CCC(CN2CCC3(CC2)C[C@H](NC(C)=O)c2ccccc23)CC1` [compound 364] are over 85%, under 55%, “+++ (activity was measured to be less than or equal to 0.7 μM)” and “+ (activity was measured to be greater than or equal to 4.0 μM)”.

Source of the values: patent publication US7858635B2 (priority 2005, dated 2010).
